According to patent publication US8440612B2, “Controlling giardiosis” (Bayer Intellectual Property GmbH, priority 2008, dated 2013):
“And” between values parts separate entries of the source, which are not always exact repeats. Equal values may be shown once.

Experiments:
Giardia duodenalis [1] = experiment: Giardia cyst excretion in infected Beagle puppies, single oral dose (Biological Example 1); format: in vivo
Excerpt: Beagle puppies aged 10-11 weeks which had 11 days to settle in the animal centre before being infected were infected orally with 50 000 Giardia duodenalis cysts. The cysts for the infection were obtained with the aid of a sucrose gradient from the faeces of dogs which excreted Giardia cysts and stored at 4 degrees centigrade in Bacto-Casitone medium for no longer than 2 weeks. From day 10 after the infection, the puppies were kept in individual cages in order to collect the daily total faeces for each individual. The quantitative determination of the cyst excretion was performed in the 4 days prior to treatment (day −3 to 0), and the puppies were divided randomly into two groups, taking into consideration the cyst excretion. […] The quantitative determination of the cyst excretion was continued from day 1 to day 8 after the treatment.
Results: The activity was calculated using the following formula:
(§1) Method: The quantitative determination of the cyst excretion was performed using a modified version of Hewlett (18): 4 g faeces were dissolved in 100 ml of water, sieved and allowed to sediment. The sediment was applied to a 1 M sucrose gradient (specific gravity 1.13), and the cysts, which were concentrated at the sucrose/water boundary layer after the centrifugation were pipetted off. After a wash step followed by centrifugation, the cysts in the pellet were counted. To this end, an aliquot of the pellet was counted under the microscope, and the number of cysts per g faeces was calculated.

Giardia duodenalis [2] = experiment: Giardia cyst excretion in infected Beagle puppies, oral dose on three successive days (Biological Example 2); format: in vivo
Method: as §1
Beagle puppies aged 11-15 weeks which had at least 2 weeks to settle in the animal centre before being infected were infected orally with 50 000 Giardia duodenalis cysts before the beginning of the study. The cysts for the infection were obtained with the aid of a sucrose gradient from the faeces of dogs which excreted Giardia cysts and stored at 4 degrees centigrade in Bacto-Casitone medium for no longer than 2 weeks. 18 puppies which excreted Giardia cysts were included in the study and kept in individual cages in order to collect the daily total faeces. The quantitative determination of the cyst excretion was performed as an […], with the modification that the aliquot of the pellet was counted under the microscope with the aid of a Fuchs-Rosenthal hematocytometer. The quantitative determination of the cyst excretion was performed for 4 days before the treatment (day −3 to 0), and the puppies were divided randomly into three groups, taking into consideration the cyst excretion. […] The 6 dogs of the control group remained untreated. The quantitative determination of the cyst excretion was continued from day 1 to day 8 after the treatment.

## CC1CS(=O)(=O)CCN1N=Cc1ccc([N+](=O)[O-])o1 (stereo not shown) [nifurtimox]
Giardia duodenalis [1]; calculated activity on cyst excretion versus infected untreated control, day 1 to 8, single oral dose 50 mg/kg, 50 mg/kg
  Activity: 90.4%
Giardia duodenalis [1]; group line Σ (7 dogs), day 1 after treatment, 50 mg/kg oral on day D0
  Σ Giardia cyst excretion D1: 1516 cysts per g faeces
Giardia duodenalis [1]; group line Σ (7 dogs), day 2 after treatment, 50 mg/kg oral on day D0
  Σ Giardia cyst excretion D2: 26 cysts per g faeces
Giardia duodenalis [1]; group line Σ (7 dogs), day 3 after treatment, 50 mg/kg oral on day D0
  Σ Giardia cyst excretion D3: 32 cysts per g faeces
Giardia duodenalis [1]; group line Σ (7 dogs), day 4 after treatment, 50 mg/kg oral on day D0
  Σ Giardia cyst excretion D4: 473 cysts per g faeces
Giardia duodenalis [1]; group line Σ (7 dogs), day 5 after treatment, 50 mg/kg oral on day D0
  Σ Giardia cyst excretion D5: 629 cysts per g faeces
Giardia duodenalis [1]; group line Σ (7 dogs), day 6 after treatment, 50 mg/kg oral on day D0
  Σ Giardia cyst excretion D6: 2523 cysts per g faeces
Giardia duodenalis [1]; group line Σ (7 dogs), day 7 after treatment, 50 mg/kg oral on day D0
  Σ Giardia cyst excretion D7: 2403 cysts per g faeces
Giardia duodenalis [1]; group line Σ (7 dogs), day 8 after treatment, 50 mg/kg oral on day D0
  Σ Giardia cyst excretion D8: 3127 cysts per g faeces
Giardia duodenalis [1]; group line Σ (7 dogs), day of treatment, 50 mg/kg oral on day D0
  Σ Giardia cyst excretion D0: 8996 cysts per g faeces
Giardia duodenalis [1]; group line Σ (7 dogs), day −1, before treatment, 50 mg/kg oral on day D0
  Σ Giardia cyst excretion D−1: 39966 cysts per g faeces
Giardia duodenalis [1]; group line Σ (7 dogs), day −2, before treatment, 50 mg/kg oral on day D0
  Σ Giardia cyst excretion D−2: 38482 cysts per g faeces
Giardia duodenalis [1]; group line Σ (7 dogs), day −3, before treatment, 50 mg/kg oral on day D0
  Σ Giardia cyst excretion D−3: 9762 cysts per g faeces
Giardia duodenalis [1]; group, after treatment, 50 mg/kg oral once on day 0
  Σ Giardia cyst excretion Day 1 to 8: 1341 cysts per g faeces
Giardia duodenalis [1]; group, before treatment, 50 mg/kg oral once on day 0
  Σ Giardia cyst excretion Day −3 to 0: 24302 cysts per g faeces
Giardia duodenalis [1]; individual dogs, day 1 after treatment, 50 mg/kg oral on day D0, 50 mg/kg
  Giardia cyst excretion D1: 504 cysts per g faeces and 4928 cysts per g faeces and 152 cysts per g faeces and 0 cysts per g faeces (2×) and 2636 cysts per g faeces and 2391 cysts per g faeces
Giardia duodenalis [1]; individual dogs, day 2 after treatment, 50 mg/kg oral on day D0, 50 mg/kg
  Giardia cyst excretion D2: 0 cysts per g faeces (6×) and 180 cysts per g faeces
Giardia duodenalis [1]; individual dogs, day 3 after treatment, 50 mg/kg oral on day D0, 50 mg/kg
  Giardia cyst excretion D3: 0 cysts per g faeces (6×) and 224 cysts per g faeces
Giardia duodenalis [1]; individual dogs, day 4 after treatment, 50 mg/kg oral on day D0, 50 mg/kg
  Giardia cyst excretion D4: 590 cysts per g faeces and 0 cysts per g faeces (2×) and 652 cysts per g faeces and 424 cysts per g faeces and 1451 cysts per g faeces and 193 cysts per g faeces
Giardia duodenalis [1]; individual dogs, day 5 after treatment, 50 mg/kg oral on day D0, 50 mg/kg
  Giardia cyst excretion D5: 1700 cysts per g faeces and 1094 cysts per g faeces and 0 cysts per g faeces (2×) and 137 cysts per g faeces and 1318 cysts per g faeces and 153 cysts per g faeces
Giardia duodenalis [1]; individual dogs, day 6 after treatment, 50 mg/kg oral on day D0, 50 mg/kg
  Giardia cyst excretion D6: 3693 cysts per g faeces and 2000 cysts per g faeces and 1201 cysts per g faeces and 353 cysts per g faeces and 0 cysts per g faeces and 4102 cysts per g faeces and 6315 cysts per g faeces
Giardia duodenalis [1]; individual dogs, day 7 after treatment, 50 mg/kg oral on day D0, 50 mg/kg
  Giardia cyst excretion D7: 8881 cysts per g faeces and 431 cysts per g faeces and 1873 cysts per g faeces and 608 cysts per g faeces and 191 cysts per g faeces and 4615 cysts per g faeces and 223 cysts per g faeces
Giardia duodenalis [1]; individual dogs, day 8 after treatment, 50 mg/kg oral on day D0, 50 mg/kg
  Giardia cyst excretion D8: 3294 cysts per g faeces and 517 cysts per g faeces and 14181 cysts per g faeces and 0 cysts per g faeces and 1621 cysts per g faeces and 1768 cysts per g faeces and 508 cysts per g faeces
Giardia duodenalis [1]; individual dogs, day of treatment, 50 mg/kg oral on day D0, 50 mg/kg
  Giardia cyst excretion D0: 4397 cysts per g faeces and 8456 cysts per g faeces and 0 cysts per g faeces and 375 cysts per g faeces and 19681 cysts per g faeces and 16419 cysts per g faeces and 13644 cysts per g faeces
Giardia duodenalis [1]; individual dogs, day −1, before treatment, 50 mg/kg oral on day D0, 50 mg/kg
  Giardia cyst excretion D−1: 1306 cysts per g faeces and 14238 cysts per g faeces and 2264 cysts per g faeces and 788 cysts per g faeces and 189275 cysts per g faeces and 45725 cysts per g faeces and 26163 cysts per g faeces
Giardia duodenalis [1]; individual dogs, day −2, before treatment, 50 mg/kg oral on day D0, 50 mg/kg
  Giardia cyst excretion D−2: 907 cysts per g faeces and 923 cysts per g faeces and 5897 cysts per g faeces and 905 cysts per g faeces and 186750 cysts per g faeces and 45672 cysts per g faeces and 28322 cysts per g faeces
Giardia duodenalis [2]; calculated activity on cyst excretion versus infected untreated control, day 3 to 8, 50 mg/kg oral on days 0, 1 and 2, 50 mg/kg
  Activity: 98.6%
Giardia duodenalis [2]; group line Σ (6 dogs), D0, day of treatment, 50 mg/kg oral on days D0, D1 and D2
  Σ Giardia cyst excretion D0: 61098 cysts per g faeces
Giardia duodenalis [2]; group line Σ (6 dogs), D1, day of treatment, 50 mg/kg oral on days D0, D1 and D2
  Σ Giardia cyst excretion D1: 872 cysts per g faeces
Giardia duodenalis [2]; group line Σ (6 dogs), D2, day of treatment, 50 mg/kg oral on days D0, D1 and D2
  Σ Giardia cyst excretion D2: 211 cysts per g faeces
Giardia duodenalis [2]; group line Σ (6 dogs), D3, after the treatment, 50 mg/kg oral on days D0, D1 and D2
  Σ Giardia cyst excretion D3: 0 cysts per g faeces
Giardia duodenalis [2]; group line Σ (6 dogs), D4, after the treatment, 50 mg/kg oral on days D0, D1 and D2
  Σ Giardia cyst excretion D4: 135 cysts per g faeces
Giardia duodenalis [2]; group line Σ (6 dogs), D5, after the treatment, 50 mg/kg oral on days D0, D1 and D2
  Σ Giardia cyst excretion D5: 638 cysts per g faeces
Giardia duodenalis [2]; group line Σ (6 dogs), D6, after the treatment, 50 mg/kg oral on days D0, D1 and D2
  Σ Giardia cyst excretion D6: 339 cysts per g faeces
Giardia duodenalis [2]; group line Σ (6 dogs), D7, after the treatment, 50 mg/kg oral on days D0, D1 and D2
  Σ Giardia cyst excretion D7: 54 cysts per g faeces
Giardia duodenalis [2]; group line Σ (6 dogs), D8, after the treatment, 50 mg/kg oral on days D0, D1 and D2
  Σ Giardia cyst excretion D8: 399 cysts per g faeces
Giardia duodenalis [2]; group line Σ (6 dogs), day −1, before treatment, 50 mg/kg oral on days D0, D1 and D2
  Σ Giardia cyst excretion D−1: 37547 cysts per g faeces
Giardia duodenalis [2]; group line Σ (6 dogs), day −2, before treatment, 50 mg/kg oral on days D0, D1 and D2
  Σ Giardia cyst excretion D−2: 28220 cysts per g faeces
Giardia duodenalis [2]; group line Σ (6 dogs), day −3, before treatment, 50 mg/kg oral on days D0, D1 and D2
  Σ Giardia cyst excretion D−3: 49751 cysts per g faeces
Giardia duodenalis [2]; group, after treatment, 50 mg/kg oral on days 0, 1 and 2
  Σ Giardia cyst excretion Day 3 to 8: 261 cysts per g faeces
Giardia duodenalis [2]; group, before treatment, 50 mg/kg oral on days 0, 1 and 2
  Σ Giardia cyst excretion Day: −3 to 0: 44154 cysts per g faeces
Giardia duodenalis [2]; individual dogs, D0, day of treatment, 50 mg/kg oral on days D0, D1 and D2, 50 mg/kg
  Giardia cyst excretion D0: 60420 cysts per g faeces and 675 cysts per g faeces and 89880 cysts per g faeces and 86 cysts per g faeces and 103442 cysts per g faeces and 112084 cysts per g faeces
Giardia duodenalis [2]; individual dogs, D1, day of treatment, 50 mg/kg oral on days D0, D1 and D2, 50 mg/kg
  Giardia cyst excretion D1: 809 cysts per g faeces and 187 cysts per g faeces and 974 cysts per g faeces and 0 cysts per g faeces and 1261 cysts per g faeces and 2000 cysts per g faeces
Giardia duodenalis [2]; individual dogs, D2, day of treatment, 50 mg/kg oral on days D0, D1 and D2, 50 mg/kg
  Giardia cyst excretion D2: 741 cysts per g faeces and 0 cysts per g faeces (4×) and 527 cysts per g faeces
Giardia duodenalis [2]; individual dogs, D3, after the treatment, 50 mg/kg oral on days D0, D1 and D2
  Giardia cyst excretion D3: 0 cysts per g faeces
Giardia duodenalis [2]; individual dogs, D4, after the treatment, 50 mg/kg oral on days D0, D1 and D2, 50 mg/kg
  Giardia cyst excretion D4: 0 cysts per g faeces (4×) and 185 cysts per g faeces and 622 cysts per g faeces
Giardia duodenalis [2]; individual dogs, D5, after the treatment, 50 mg/kg oral on days D0, D1 and D2, 50 mg/kg
  Giardia cyst excretion D5: 229 cysts per g faeces and 0 cysts per g faeces (3×) and 2299 cysts per g faeces and 1299 cysts per g faeces
Giardia duodenalis [2]; individual dogs, D6, after the treatment, 50 mg/kg oral on days D0, D1 and D2, 50 mg/kg
  Giardia cyst excretion D6: 0 cysts per g faeces (3×) and 98 cysts per g faeces and 1842 cysts per g faeces and 93 cysts per g faeces
Giardia duodenalis [2]; individual dogs, D7, after the treatment, 50 mg/kg oral on days D0, D1 and D2, 50 mg/kg
  Giardia cyst excretion D7: 0 cysts per g faeces (4×) and 87 cysts per g faeces and 237 cysts per g faeces
Giardia duodenalis [2]; individual dogs, D8, after the treatment, 50 mg/kg oral on days D0, D1 and D2, 50 mg/kg
  Giardia cyst excretion D8: 517 cysts per g faeces and 0 cysts per g faeces (3×) and 975 cysts per g faeces and 903 cysts per g faeces
Giardia duodenalis [2]; individual dogs, day −1, before treatment, 50 mg/kg oral on days D0, D1 and D2, 50 mg/kg
  Giardia cyst excretion D−1: 25515 cysts per g faeces and 3472 cysts per g faeces and 37203 cysts per g faeces and 8528 cysts per g faeces and 91293 cysts per g faeces and 59273 cysts per g faeces
Giardia duodenalis [2]; individual dogs, day −2, before treatment, 50 mg/kg oral on days D0, D1 and D2, 50 mg/kg
  Giardia cyst excretion D−2: 10685 cysts per g faeces and 8278 cysts per g faeces and 1618 cysts per g faeces and 133 cysts per g faeces and 79689 cysts per g faeces and 68914 cysts per g faeces
